These are literature values, as cited in article PMC4112557 (Bioconjugate Chemistry, 2014).

The target of the series is PSMA (Homo sapiens, UniProt Q04609). Conditions: hydrolysis of NAAG in the amplex red assay.

Where a SMILES comes first, the peptide text is derived from it.

PSMA, sequence (Q04609 whole entry): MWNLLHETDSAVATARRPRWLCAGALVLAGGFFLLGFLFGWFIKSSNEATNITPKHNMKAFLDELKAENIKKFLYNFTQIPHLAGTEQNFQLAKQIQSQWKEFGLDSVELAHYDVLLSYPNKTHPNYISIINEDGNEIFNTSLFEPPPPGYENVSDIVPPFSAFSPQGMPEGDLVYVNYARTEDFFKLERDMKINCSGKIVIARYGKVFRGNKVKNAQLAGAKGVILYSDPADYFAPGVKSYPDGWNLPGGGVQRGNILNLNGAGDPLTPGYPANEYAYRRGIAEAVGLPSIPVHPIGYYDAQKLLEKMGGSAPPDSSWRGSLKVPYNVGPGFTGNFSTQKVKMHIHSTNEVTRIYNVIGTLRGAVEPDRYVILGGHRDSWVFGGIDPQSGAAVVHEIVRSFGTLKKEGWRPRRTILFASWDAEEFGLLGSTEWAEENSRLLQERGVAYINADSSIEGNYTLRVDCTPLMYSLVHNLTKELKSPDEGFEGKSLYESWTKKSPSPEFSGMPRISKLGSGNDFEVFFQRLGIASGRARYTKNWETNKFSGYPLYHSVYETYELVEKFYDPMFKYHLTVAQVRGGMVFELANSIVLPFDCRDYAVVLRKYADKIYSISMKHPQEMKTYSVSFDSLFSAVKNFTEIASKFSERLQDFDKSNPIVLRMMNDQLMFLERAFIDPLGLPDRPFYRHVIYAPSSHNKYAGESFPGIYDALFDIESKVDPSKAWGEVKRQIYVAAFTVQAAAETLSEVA

`CC(=O)N[C@@H](CC(=O)O)C(=O)N[C@@H](CCC(=O)O)C(=O)O` [NAAG, N-acetylaspartylglutamic acid] (Ac-Asp-Glu-OH): the Km was 1.15 µM.

The Km is the substrate concentration at which the rate is half of its maximum.
